{"source": "patent US20150133537A1", "about": "“3 - (1' - ADAMANTYL) - 1 - AMINOMETHYL - 3, 4 - DIHYDRO - 5, 6 - DIHYDROXY - 1H - 2 - BENZOPYRAN FOR USE IN THE TREATMENT OF A DISEASE ASSOCIATED WITH BETA-AMYLOID INDUCED TOXICITY” (The University of Manchester, priority 2012, published 2015)", "key": {"[1]": {"tested_on": "SH-SY5Y cells treated with extracellular Aβ42", "test": "MTT assay of cell viability in the presence of extracellular Aβ42", "type": "cell-based", "conditions": "for cell viability (MTT): hydrochloride", "procedure": "The compound and target peptide were added simultaneously and incubated at 37° C. followed by cellular viability measurement using MTT assay. […] Data are represented as mean percentage viability, with no treatment controls set as 100%, n=3 and the error bars represent standard error.\nThe MTT assay provides a colorimetric analysis of cell viability by the conversion of MTT into formazan product by the mitochondrial enzyme succinate dehydrogenase. For cytotoxicity experiments cells were washed twice with Dulbecco's PBS followed by trypsinisation of cells, centrifugation at 1800 rpm and seeding the cells on 96 well flat bottom plates (Costar) in Opti-MEM media without phenol red supplemented with 1.5% FCS, 1% L-glutamine, 1% Penicillin-streptomycin (P/S) and 1% non essential amino acids (NEAA).\nThe cells were seeded at 1×10^5/ml density in a 96 well flat bottom plate (Costar) and incubated for 24 hr in a humidified incubator at 37° C. with 5% CO2.\nAfter 24 hr; 50 μl of the media was removed and 10 μl of MTT (2.5 mg/ml) was added to the cells. This was followed by incubation for further 4 hr at 37° C. and 5% CO2. MTT reduction was characterized by adding 100 μl solubilization solution containing 50 ml isopropyl alcohol and 197 μl of 37% HCl. The cytotoxicity was determined by measuring the absorbance at 570 nm using Polarstar BMG labtech plate reader.\nFor the MTT cytotoxicity assay, A-77636 was diluted in the Opti-MEM media supplemented with 1.5% FCS, 1% P/S, 1% L-glutamine and 1% NEAA. The target compound was added to the SH-SY5Y cells at concentrations of 100 μM, 10 μM, 1 μM, 100 nM, 10 nM and 1 nM.\nThe cells were seeded at 1×10^5/ml density in a 96 well flat bottom plate (Costar) and incubated for 24 hr in a humidified incubator at 37° C. with 5% CO2. […] The cells were then incubated for 24 hr in the humidified incubator at 37° C. in 5% CO2.\nAfter 24 hr; 500 of the media was removed and 10 μl of MTT (2.5 mg/ml) was added to the cells. This was followed by incubation for further 4 hr at 37° C. and 5% CO2. MTT reduction was characterized by adding 100 μl solubilization solution containing 50 ml isopropyl alcohol and 197 μl of 37% HCl. The 96 well plates were kept at room temperature for 6 hr to dissolve the formazan crystals. The cytotoxicity was determined by measuring the absorbance at 570 nm using Polarstar BMG labtech plate reader."}, "[2]": {"tested_on": "Parkinson's disease in animal models", "conditions": "known, reference 9; cited from earlier work"}, "[3]": {"conditions": "known, reference 16; cited from earlier work"}, "[4]": {"tested_on": "SHSY5Y cells treated with Aβ42 (1 μM)", "test": "Cyto Tox-One LDH (lactate dehydrogenase) release assay;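 also: fluorescent readout of resorufin formed from resazurin in proportion to released LDH (excitation 560 nm, emission 590 nm), with detergent-lysed dead cells taken as 100% maximal release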", "type": "cell-based", "conditions": "for LDH release: SHSY5Y cells, Exp 1-3 and Avg, hydrochloride", "source_text": "The LDH assay provides the measure of cytotoxicity, wherein the amount of LDH released quantifies cell membrane damage, caused either by apoptosis or necrosis^13,15. The commercially available Cyto Tox-One assay (Promega; G7890) was used here which provides a fluorescent measure of LDH release, wherein the reduction of resazurin dye to resofurin is coupled through enzymatic conversion involving NADH. The generation of fluorescent dye resofurin is proportional to the amount of LDH release.\nFor the LDH cytotoxicity assay, A-77636 was diluted in the Opti-MEM media supplemented with 1.5% FCS, 1% P/S, 1% L-glutamine and 1% NEAA. A-77636 was added to the SHSY5Y cells at concentrations of 100 μM, 10 μM, 1 μM, 100 nM, 10 nM and 1 nM.\nThe cells were seeded at 1×10^5/ml density in a 96 well black, flat bottom plate (BD Biosciences) and incubated for 24 hr in a humidified incubator at 37° C. with 5% CO2. […] The final concentration of the target peptide and A-77636 within the cells was 1 μM:100 μM, 1 μM:10 μM, 1 μM:1 μM, 1 μM:100 nM, 1 μM:10 nM, and 1 μM:1 nM respectively. The cells were then incubated for 24 hr in the humidified incubator at 37° C. in 5% CO2.\nAfter 24 hr, the 96 well plates were removed from the incubator and equilibrated at 22° C. for 30 min. The Cyto Tox-One reagent was prepared according to the manufacturer's protocol by equilibrating the substrate mix at 22° C. and thawing the assay buffer at 37° C. in a water bath. This was followed by adding 11 ml of assay buffer to each vial of substrate mix. 100 μl of Cyto Tox-One reagent was added to each well. The preparation and addition of Cyto Tox-One reagent was undertaken in the dark to avoid increased background fluorescence and stored at −20° C. until required. The cells were further incubated at 22° C. for 10 min followed by addition of stop solution to the wells in the same order as that of the Cyto Tox-One reagent to avoid increased variation in the results. The stop solution stops formation of fluorescent product resofurin. The maximum LDH release (set as 100%) for each experiment was determined by adding 2 μl of lysis solution (9% triton X 100, Promega) to the cells prior to the addition of Cyto Tox-One reagent, providing a dead cell control. […] The 96 well plates were then kept on the shaker for 10 sec and the fluorescence was measured immediately with an excitation at 560 nm and emission at 590 nm using a Polarstar BMG plate reader."}}, "note": "Values joined by “and” are separate entries in the source; they are usually repeats but may differ in a detail not shown here. Equal values may be shown once. Where a name gives a salt, the structure may show the parent alone."}
{"molecule": "Br.C=CCN1CCc2c(cc(O)c(O)c2Br)[C@@H](c2ccccc2)C1", "note": "[Compound A, R(+)-6-Bromo-7,8-dihydroxy-3-allyl-1-phenyl-2,3,4,5-tetrahydro-1H-3-benzazepine hydrobromide, reference compound]", "values": [{"measurement": "inhibition of Aβ42 toxicity", "setting": "[1]; D1 receptor agonist screen, SH-SY5Y cells, Aβ42 (1 μM), 24 hr, MTT", "result": "partial inhibition"}, {"measurement": "cellular viability (MTT)", "setting": "[1]; D1 receptor agonist screen, SH-SY5Y cells, added simultaneously with Aβ42 (1 μM), 24 hr, no treatment controls = 100%, p<0.05", "result": 81, "unit": "%"}]}
{"molecule": "NC[C@@H]1O[C@H](C23CC4CC(CC(C4)C2)C3)Cc2c1ccc(O)c2O", "note": "[Compound A-77636, (1R,3S) 3-(1′-adamantyl)-1-aminomethyl-3,4-dihydro-5,6-dihydroxy-1H-2-benzopyran hydrochloride]", "values": [{"measurement": "activity against Parkinson's disease in animal models", "setting": "[2]", "result": "activity against Parkinson's disease"}, {"measurement": "crossing of the blood-brain barrier", "setting": "[3]", "result": "cross the blood-brain barrier"}, {"measurement": "toxicity in LDH assay", "setting": "[4]; A-77636 at 100 μM, 1 μM Aβ42", "result": "possibly toxic"}, {"measurement": "LDH release", "setting": "[4]; 1 μM Aβ42 + 1 nM A-77636, 24 hr", "result": "35% and 38% and 61%"}, {"measurement": "LDH release", "setting": "[4]; 1 μM Aβ42 + 1 nM A-77636, 24 hr, mean", "result": 45, "unit": "%"}, {"measurement": "LDH release", "setting": "[4]; 1 μM Aβ42 + 10 nM A-77636, 24 hr", "result": "35% and 39% and 56%"}, {"measurement": "LDH release", "setting": "[4]; 1 μM Aβ42 + 10 nM A-77636, 24 hr, mean", "result": 43, "unit": "%"}, {"measurement": "LDH release", "setting": "[4]; 1 μM Aβ42 + 100 nM A-77636, 24 hr", "result": "20% and 23% and 32%"}, {"measurement": "LDH release", "setting": "[4]; 1 μM Aβ42 + 100 nM A-77636, 24 hr, mean", "result": 25, "unit": "%"}, {"measurement": "LDH release", "setting": "[4]; 1 μM Aβ42 + 1 μM A-77636, 24 hr", "result": "27% and 48% and 43%"}, {"measurement": "LDH release", "setting": "[4]; 1 μM Aβ42 + 1 μM A-77636, 24 hr, mean", "result": 39, "unit": "%"}, {"measurement": "LDH release", "setting": "[4]; 1 μM Aβ42 + 10 μM A-77636, 24 hr", "result": "33% and 47% and 52%"}, {"measurement": "LDH release", "setting": "[4]; 1 μM Aβ42 + 10 μM A-77636, 24 hr, mean", "result": 44, "unit": "%"}, {"measurement": "LDH release", "setting": "[4]; 1 μM Aβ42 + 100 μM A-77636, 24 hr, LDH max (dead cells) = 100", "result": "61% and 53% and 64%"}, {"measurement": "effect on Aβ42 toxicity in LDH assay", "setting": "[4]; all concentrations from 100 μM to 1 nM, 1 μM Aβ42", "result": "reduces Aβ42 toxicity"}, {"measurement": "inhibition of the toxic effects of Aβ42", "setting": "[1]; 1 μM A-77636, 1 μM Aβ42, MTT, Table 1", "result": "capable of inhibiting the toxic effects of Aβ42"}, {"measurement": "activity against Aβ42 toxicity in MTT assay", "setting": "[1]; A-77636 at 1 nM, SH-SY5Y cells with 1 μM Aβ42", "result": "inactive"}, {"measurement": "toxicity in MTT assay", "setting": "[1]; A-77636 at 100 μM, SH-SY5Y cells with 1 μM Aβ42", "result": "toxic"}, {"measurement": "activity against Aβ42 toxicity in MTT assay", "setting": "[1]; A-77636 from 10 nM to 10 μM, SH-SY5Y cells with 1 μM Aβ42", "result": "active"}, {"measurement": "cell viability (MTT)", "setting": "[1]; SH-SY5Y cells, 1 μM Aβ42 + 1 μM A-77636, 24 hr, Aβ42 −ve cells = 100%, Experiments 1-3 and Average", "result": "82% and 69% and 92%"}, {"measurement": "cell viability (MTT)", "setting": "[1]; SH-SY5Y cells, 1 μM Aβ42 + 1 μM A-77636, 24 hr, Aβ42 −ve cells = 100%, Experiments 1-3 and Average, mean", "result": 81, "unit": "%"}, {"measurement": "cell viability (MTT)", "setting": "[1]; SHSY5Y cells, 1 μM Aβ42 + 1 nM A-77636, 24 hr, Exp 1-3 and Avg", "result": "71% and 67%"}, {"measurement": "cell viability (MTT)", "setting": "[1]; SHSY5Y cells, 1 μM Aβ42 + 1 nM A-77636, 24 hr, Exp 1-3 and Avg, mean of three experiments", "result": 68, "unit": "%"}, {"measurement": "cell viability (MTT)", "setting": "[1]; SHSY5Y cells, 1 μM Aβ42 + 10 nM A-77636, 24 hr, Exp 1-3 and Avg", "result": "80% and 74% and 84%"}, {"measurement": "cell viability (MTT)", "setting": "[1]; SHSY5Y cells, 1 μM Aβ42 + 10 nM A-77636, 24 hr, Exp 1-3 and Avg, mean of three experiments", "result": 79, "unit": "%"}, {"measurement": "cell viability (MTT)", "setting": "[1]; SHSY5Y cells, 1 μM Aβ42 + 100 nM A-77636, 24 hr, Exp 1-3 and Avg", "result": "78% and 74% and 81%"}, {"measurement": "cell viability (MTT)", "setting": "[1]; SHSY5Y cells, 1 μM Aβ42 + 100 nM A-77636, 24 hr, Exp 1-3 and Avg, mean of three experiments", "result": 77, "unit": "%"}, {"measurement": "cell viability (MTT)", "setting": "[1]; SHSY5Y cells, 1 μM Aβ42 + 1 μM A-77636, 24 hr, Exp 1-3 and Avg (Table 2)", "result": "87% and 90% and 86%"}, {"measurement": "cell viability (MTT)", "setting": "[1]; SHSY5Y cells, 1 μM Aβ42 + 10 μM A-77636, 24 hr, Exp 1-3 and Avg", "result": "84% and 81% and 86%"}, {"measurement": "cell viability (MTT)", "setting": "[1]; SHSY5Y cells, 1 μM Aβ42 + 10 μM A-77636, 24 hr, Exp 1-3 and Avg, mean of three experiments", "result": 83, "unit": "%"}, {"measurement": "cell viability (MTT)", "setting": "[1]; SHSY5Y cells, 1 μM Aβ42 + 100 μM A-77636, 24 hr, Exp 1-3 and Avg", "result": "9% and 4%"}, {"measurement": "cell viability (MTT)", "setting": "[1]; SHSY5Y cells, 1 μM Aβ42 + 100 μM A-77636, 24 hr, Exp 1-3 and Avg, mean of three experiments", "result": 6, "unit": "%"}]}
